From patent publication US12421249B2, “Inhibitors of APOL1 and methods of using same” (Vertex Pharmaceuticals Incorporated, priority 2020, dated 2025)

Assays:
[1] = biological target: T1, APOL1 G1 (Homo sapiens, UniProt O14791, I384M/S342G); assay: Trypanosoma brucei brucei Lysis Assay Using APOL1 Recombinant Protein (AlamarBlue viability readout); format: cell-based; conditions: Trypanosome Assay; for IC50: IP50 = IC50 for cell proliferation, read-out: Trypanosome Assay IP50; for Emax: read-out: Trypanosome Assay Max Activity (%)
T1 sequence (O14791 28-398 S342G/I384M): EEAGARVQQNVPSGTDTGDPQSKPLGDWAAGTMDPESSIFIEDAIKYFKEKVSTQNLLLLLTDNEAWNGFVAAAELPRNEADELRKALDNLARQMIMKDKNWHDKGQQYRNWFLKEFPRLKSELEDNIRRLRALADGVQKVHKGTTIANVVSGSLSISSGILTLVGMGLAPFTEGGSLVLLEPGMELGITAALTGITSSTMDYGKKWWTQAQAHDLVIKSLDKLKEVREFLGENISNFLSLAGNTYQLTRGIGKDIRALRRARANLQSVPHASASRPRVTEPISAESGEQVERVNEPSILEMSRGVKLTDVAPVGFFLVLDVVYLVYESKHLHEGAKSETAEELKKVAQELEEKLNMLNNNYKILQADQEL
Procedure, shortened: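 Percent viability comes from AlamarBlue (resazurin→resorufin) fluorescence interpolated on a standard curve of known parasite numbers, with no-APOL1 wells as 100%. Parasites (Lister 427 bloodstream form, 120,000/well, serum-free assay medium) meet 0.05 μg/mL APOL1 (~EC90). Compounds span a 10-point series, 0.1% DMSO final.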

[2] = biological target: T2, APOL1 (Homo sapiens, UniProt O14791); assay: Multi-Tox Assay (MultiTox-Fluor Multiplex Cytotoxicity Assay in tet-inducible APOL1 T-REx-HEK293 cells; Table 46 does not say which APOL1 variant G0/G1/G2); format: cell-based; conditions: APOL1 variant not given; for IC50: IP50 = IC50 for cell proliferation
T2 sequence (O14791 1-398 S342G/I384M): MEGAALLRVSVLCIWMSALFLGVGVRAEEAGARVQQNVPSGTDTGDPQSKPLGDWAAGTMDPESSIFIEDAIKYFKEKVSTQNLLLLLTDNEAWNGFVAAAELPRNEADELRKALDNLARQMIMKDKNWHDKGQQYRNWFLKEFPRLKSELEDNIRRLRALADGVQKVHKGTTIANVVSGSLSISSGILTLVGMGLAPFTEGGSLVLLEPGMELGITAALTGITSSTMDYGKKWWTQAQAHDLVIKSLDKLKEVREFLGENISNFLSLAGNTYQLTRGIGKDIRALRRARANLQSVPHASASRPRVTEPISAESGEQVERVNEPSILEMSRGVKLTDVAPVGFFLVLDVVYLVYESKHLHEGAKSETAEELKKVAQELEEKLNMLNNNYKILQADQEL

Compound | IC50 [1] [nM] | Emax [1] [%] | Multi-Tox Assay Max Activity (%) [2] [%] | IC50 [2] [nM] | IC90 [2] [nM]
CC1CC2(CC(c3cnn(-c4cccnc4)c3)N1)OCCc1cc(Cl)sc12 (stereo not shown) [Compound 40] | < 50 | 118 | 100.0 | < 50 | –
CNC(=O)c1ccc(C2CC3(CC(C)N2)OCCc2cc(Cl)sc23)cc1 (stereo not shown) [Compound 41] | < 50 | 112 | – | < 50 | –
Cc1nn(C)c2ncc(C3CC4(CC(C)N3)OCCc3cc(Cl)sc34)cc12 (stereo not shown) [Compound 42] | < 50 | 110 | – | < 50 | –
Cc1cc(C2CC3(CC(C)N2)OCCc2cc(Cl)sc23)ncn1 (stereo not shown) [Compound 43] | < 50 | 103 | 100.0 | < 50 | –
CC1CC2(CC(c3cncnc3)N1)OCCc1cc(Cl)sc12 (stereo not shown) [Compound 45] | < 50 | 103 | 100.0 | < 50 | –
CC1CC2(CC(c3cnn(CCS(C)(=O)=O)c3)N1)OCCc1cc(Cl)sc12 (stereo not shown) [Compound 46] | < 50 | 108 | 99.0 | < 50 | –
CC1CC2(CC(c3cn(CC4CC4)nn3)N1)OCCc1cc(Cl)sc12 (stereo not shown) [Compound 122] | 50 to 500 | 106 | – | < 50 | –
C[C@H]1C[C@@]2(C[C@@H](c3cn(C)nn3)N1)OC[C@@H](O)c1cc(Cl)sc12 [Compound 174, (2′S,4S,6′S,7S)-2-chloro-2′-methyl-6′-(1-methyltriazol-4-yl)spiro[4,5-dihydrothieno[2,3-c]pyran-7,4′-piperidine]-4-ol] | < 50 | 104 | – | < 50 | –
C[C@H]1C[C@@]2(C[C@@H](c3cn(C)nn3)N1)OC[C@H](O)c1cc(C(F)(F)F)sc12 [Compound 180] | < 50 | 102 | – | < 50 | –
C[C@H]1C[C@@]2(C[C@@H](c3cn(C)nn3)N1)OC[C@@H](O)c1cc(C(F)(F)F)sc12 [Compound 181, (2S,4S,4′S,6S)-2-methyl-6-(1-methyl-1H-1,2,3-triazol-4-yl)-2′-(trifluoromethyl)-4′,5′-dihydrospiro[piperidine-4,7′-thieno[2,3-c]pyran]-4′-ol] | < 50 | 102 | – | < 50 | –
C[C@H]1C[C@@]2(C[C@@H](c3cn(C)nn3)N1)OC[C@@H](O)c1sc(Cl)cc12 [Compound 182] | < 50 | 113 | – | < 50 | –
C[C@H]1C[C@@]2(C[C@@H](c3cn(C)nn3)N1)OCC(F)(F)c1cc(Cl)sc12 [Compound 183, (2′S,6′S,7S)-2-chloro-4,4-difluoro-2′-methyl-6′-(1-methyltriazol-4-yl)spiro[5H-thieno[2,3-c]pyran-7,4′-piperidine]] | 50 to 500 | 106 | – | < 50 | –
CCC1CC2(CC(c3cn(C)nn3)N1)OCCc1cc(Cl)sc12 (stereo not shown) [Compound 186, 2-chloro-2′-ethyl-6′-(1-methyltriazol-4-yl)spiro[4,5-dihydrothieno[2,3-c]pyran-7,4′-piperidine]] | 50 to 500 | 104 | 99.3 | < 50 | 50 to 500
CCC1CC2(CC(c3cn(C)nn3)N1)OCCc1cc(C(F)(F)F)sc12 (stereo not shown) [Compound 187, 2′-ethyl-6′-(1-methyltriazol-4-yl)-2-(trifluoromethyl)spiro[4,5-dihydrothieno[2,3-c]pyran-7,4′-piperidine]] | 50 to 500 | 106 | 100.0 | < 50 | < 50
CC(C)C1CC2(CC(c3cn(C)nn3)N1)OCCc1cc(Cl)sc12 (stereo not shown) [Compound 188] | 50 to 500 | 108 | 99.0 | 50 to 500 | 50 to 500
Cn1cc(C2CC3(CC(C4CCC4)N2)OCCc2cc(Cl)sc23)nn1 (stereo not shown) [Compound 189] | > 500 | 87.5 | – | 50 to 500 | –
COCC1CC2(CC(c3cn(C)nn3)N1)OCCc1cc(Cl)sc12 (stereo not shown) [Compound 190] | > 500 | 92.5 | – | 50 to 500 | –
CC(C)C1CC2(CC(c3cn(C)nn3)N1)OCCc1cc(C(F)(F)F)sc12 (stereo not shown) [Compound 191] | 50 to 500 | 108 | – | 50 to 500 | –
Cn1cc(C2CC3(CC(C4CCC4)N2)OCCc2cc(C(F)(F)F)sc23)nn1 (stereo not shown) [Compound 192] | 50 to 500 | 100 | – | 50 to 500 | –
COCC1CC2(CC(c3cn(C)nn3)N1)OCCc1cc(C(F)(F)F)sc12 (stereo not shown) [Compound 193] | 50 to 500 | 100 | – | 50 to 500 | –
C[C@H]1CC2(C[C@H](C)N1)OCCc1sc(C(F)(F)F)cc12 (stereo partly shown) [Compound 195] | > 500 | 50.7 | – | > 500 | –
COC(=O)[C@@H]1C[C@]2(C[C@H](C)N1)OCCc1cc(Cl)sc12 [Compound 209, methyl (2′S,6′S,7S)-2-chloro-6′-methyl-spiro[4,5-dihydrothieno[2,3-c]pyran-7,4′-piperidine]-2′-carboxylate] | 50 to 500 | 100 | – | > 500 | –
C[C@H]1C[C@@]2(C[C@@H](CC3CCOCC3)N1)OCCc1cc(Cl)sc12 [Compound 219, (2S,6R)-2-chloro-2′-methyl-6′-(tetrahydropyran-4-ylmethyl)spiro[4,5-dihydrothieno[2,3-c]pyran-7,4′-piperidine]] | > 500 | 71 | – | > 500 | –
C[C@H]1C[C@@]2(C[C@@H](C3CC3)N1)OCC(O)c1cc(Cl)sc12 (stereo partly drawn) [Compound 220, (2S,6S)-2-chloro-2′-cyclopropyl-6′-methyl-spiro[4,5-dihydrothieno[2,3-c]pyran-7,4′-piperidine]-4-ol] | < 50 | 110 | – | < 50 | –
